Reference: publication PMC6152631, “Microwave-Assisted Facile Synthesis, Anticancer Evaluation and Docking Study of N-((5-(Substituted methylene amino)-1,3,4-thiadiazol-2-yl)methyl) Benzamide Derivatives” (Molecules : A Journal of Synthetic Chemistry and Natural …, 2017)

Assays:
Assay type in all cases: cell-based
[1] = test system: HeLa (human cervical cancer cell line); assay: MTT assay, in vitro anticancer activity, HeLa; details: 48 h treatment
Experimental: (§1) The synthesized compounds 7(a–l) were evaluated for their in vitro anticancer activity against MCF-7 (human breast cancer cell line), HeLa (human cervical cancer cell line), SKMEL-2 (human melanoma cancer cell line) and HL-60 (human leukemia cancer cell line) cancer cell lines, as shown in Table 2. […] The GI50 values (the concentration required to achieve a growth inhibition of 50%) for the synthesized compounds were determined by MTT assay method. The in vitro anticancer evaluation results and GI50 values were listed in Table 2, and the well-known anticancer drug Adriamycin was used as positive control.
(§2) The synthesized compounds 7(a–l) were evaluated for their in vitro anticancer activity against MCF-7 (human breast cancer cell line), HeLa (human cervical cancer cell line), SKMEL-2 (human melanoma cancer cell line) and HL-60 (human leukemia cancer cell line) cancer cell lines. The GI50 values (concentration required to Growth inhibition of 50%) for the synthesized compounds were determined using the MTT assays method.
(§3) The stock solutions of test compounds were prepared in DMSO. After 24 h incubation, different concentrations (2, 4, 6, 8 µM) of compounds, made by serial dilution in culture medium, were added in 48 h incubation. The final concentration of DMSO was 0.01% in each well. […] The cell growth was determined using MTT (3-(4,5-dimethylthiazol-2-yl)-2,5-diphenyl tetrazolium bromide (Sigma, St. Louis, MO, USA) reduction assay, which is based on the ability of viable cells to reduce a soluble yellow tetrazolium salt to blue formazan crystal. Briefly, after 48 h of treatments, the 10 µl of MTT dye, prepared in phosphate buffered saline (PBS) was added to all wells. The plates were then incubated for 4 h at 37 °C. Supernatant from each well was carefully removed, formazon crystals were dissolved in 100 µL of DMSO and absorbance at 540 nm wavelength was recorded and each concentration was tested in threefold. The GI50 values were determined as concentration of compounds that inhibited cancer cell growth by 50%.

[2] = test system: MCF-7 (human breast cancer cell line); assay: MTT assay, in vitro anticancer activity, MCF-7; details: MCF7, 48 h treatment
Experimental: as §1, §2, §3

[3] = test system: SKMEL-2 (human melanoma cancer cell line); assay: MTT assay, in vitro anticancer activity, SKMEL-2; details: SK-MEL-2, 48 h treatment
Experimental: as §1, §2, §3

[4] = test system: HL-60 (human leukemia cancer cell line); assay: MTT assay, in vitro anticancer activity, HL-60; details: 48 h treatment
Experimental: as §1, §2, §3

[5] = test system: MCF-10A normal breast epithelial cell lines; assay: MTT assay, cytotoxicity on non-tumorigenic cells, MCF-10A; details: MCF-7 vs MCF-10A GI50
Experimental: [The procedure below names another cell line; the source lists this cell line under the same test.] as §1, §3

[6] = as above; details: human, MCF-10A non-tumorigenic breast epithelial cells; MTT, MCF-10A normal breast epithelial cells
Experimental: [The procedure below names another cell line; the source lists this cell line under the same test.] as §1, §3

GI50 [1]	GI50 [2]	GI50 [3]	GI50 [4]	Structure (SMILES)	selectivity for MCF-7 cancer cell lines in comparison to MCF-10A normal breast epithelial cell lines [5]	GI50 at 48 h [6]
46.8 µM	35.2 µM	28.1 µM	39.6 µM	COc1cc(/C=N/c2nnc(CNC(=O)c3ccccc3)s2)ccc1O [Compound 7e, (E)-N-((5-(4-Hydroxy-3-methoxybenzylideneamino)-1,3,4-thiadiazol-2-yl)methyl) benzamide]	–	–
39 µM	28.7 µM	22.9 µM	28.2 µM	O=C(NCc1nnc(/N=C/c2ccc(Cl)cc2Cl)s1)c1ccccc1 [Compound 7b, (E)-N-((5-(2,4-Dichlorobenzylideneamino)-1,3,4-thiadiazol-2-yl)methyl) benzamide]	three	86.1 µM
52.4 µM	36.7 µM	34 µM	40.2 µM	O=C(NCc1nnc(/N=C/c2ccccc2O)s1)c1ccccc1 [Compound 7d, (E)-N-((5-(2-Hydroxybenzylideneamino)-1,3,4-thiadiazol-2-yl)methyl) benzamide]	–	–
28.8 µM	19 µM	22 µM	29.9 µM	O=C(NCc1nnc(/N=C/c2cccs2)s1)c1ccccc1 [Compound 7l, (E)-N-((5-(Thiophen-2-ylmethyleneamino)-1,3,4-thiadiazol-2-yl)methyl) benzamide]	–	> 100 µM
78.8 µM	51.4 µM	55.7 µM	49.9 µM	COc1cc(OC)c(OC)cc1/C=N/c1nnc(CNC(=O)c2ccccc2)s1 [Compound 7j, (E)-N-((5-(2,4,5-Trimethoxybenzylideneamino)-1,3,4-thiadiazol-2-yl)methyl) benzamide]	–	–
71.7 µM	46.2 µM	49.1 µM	48.2 µM	COc1ccc(/C=N/c2nnc(CNC(=O)c3ccccc3)s2)cc1OC [Compound 7h, (E)-N-((5-(3,4-Dimethoxybenzylideneamino)-1,3,4-thiadiazol-2-yl)methyl) benzamide]	–	–
23.8 µM	11.7 µM	19.6 µM	35.5 µM	O=C(NCc1nnc(/N=C/c2ccco2)s1)c1ccccc1 [Compound 7k, (E)-N-((5-(Furan-2-ylmethyleneamino)-1,3,4-thiadiazol-2-yl)methyl) benzamide]	–	> 100 µM
41.1 µM	32.4 µM	27.5 µM	33.3 µM	O=C(NCc1nnc(/N=C/c2ccc(O)cc2)s1)c1ccccc1 [Compound 7c, (E)-N-((5-(4-Hydroxybenzylideneamino)-1,3,4-thiadiazol-2-yl)methyl) benzamide]	–	–
66.1 µM	41 µM	46.4 µM	42.4 µM	COc1ccc(/C=N/c2nnc(CNC(=O)c3ccccc3)s2)cc1 [Compound 7g, (E)-N-((5-(4-Methoxybenzylideneamino)-1,3,4-thiadiazol-2-yl)methyl) benzamide]	–	–
78 µM	49 µM	52.6 µM	45.8 µM	COc1cc(/C=N/c2nnc(CNC(=O)c3ccccc3)s2)cc(OC)c1OC [Compound 7i, (E)-N-((5-(3,4,5-Trimethoxybenzylideneamino)-1,3,4-thiadiazol-2-yl)methyl) benzamide]	–	–
49.2 µM	38.4 µM	30 µM	37.5 µM	CCOc1cc(/C=N/c2nnc(CNC(=O)c3ccccc3)s2)ccc1O [Compound 7f, (E)-N-((5-(3-Ethoxy-4-hydroxybenzylideneamino)-1,3,4-thiadiazol-2-yl)methyl) benzamide]	–	–
< 10 µM	< 10 µM	< 10 µM	< 10 µM	COc1cccc2c1C(=O)c1c(O)c3c(c(O)c1C2=O)C[C@@](O)(C(=O)CO)C[C@@H]3O[C@H]1C[C@H](N)[C@H](O)[C@H](C)O1 [ADR, Adriamycin, reference compound]	–	–
32.8 µM	22.9 µM	21.9 µM	21.7 µM	O=C(NCc1nnc(/N=C/c2ccc(Cl)cc2)s1)c1ccccc1 [Compound 7a, (E)-N-((5-(4-Chlorobenzylideneamino)-1,3,4-thiadiazol-2-yl)methyl) benzamide]	–	> 100 µM
